In brackets after ≈: the same amount, converted by molar mass. Several values for one entry are separate records, joined by “and”; a condition that tells them apart may be missing. Identical values can stand only once. Like-named read-outs stand apart in the source and are kept apart here.
Tests used:
Acinetobacter baumannii [1] = test: MIC micro-dilution; format: cell-based
Experimental: (§1) Luria-Bertani (LB) media (10 g/L tryptone, 10 g/L NaCl, 5 g/L yeast extract, pH 7.0) was used to grow all bacterial strains, except Streptococcus pyogenes. Streptococcus pyogenes was grown in Mueller-Hinton broth containing 5% (v/v) sheep blood. All bacterial cultures were grown at 37° C. All the E. coli strains were grown while shaking at 200 rpm, while clinical pathogens were incubated without shaking.
(§2) The MIC of all the strains was determined in LB media except Streptococcus pyogenes, which was grown in Mueller-Hinton media containing 5% (v/v) sheep blood. The micro-dilution method was utilized in 96-well clear flat-bottom plates (100 μL/well) according to the CLSI guidelines. All strains were grown at 37° C. for 16-18 hours in presence of various concentrations of compound. The MIC was determined by a visual inspection and experiments were performed in triplicate.

Bacillus subtilis 168 = test: MIC micro-dilution; format: cell-based; settings: Bacillus subtilis, 168
Experimental: as §1, §2

Edwardsiella tarda [2] = test: MIC micro-dilution; format: cell-based
Experimental: as §1, §2

Enterobacter aerogenes [3] = test: MIC micro-dilution; format: cell-based
Experimental: as §1, §2

Klebsiella pneumoniae [4] = test: MIC micro-dilution; format: cell-based
Experimental: as §1, §2

Morganella morganii [5] = test: MIC micro-dilution; format: cell-based
Experimental: as §1, §2

Pseudomonas aeruginosa [6] = test: MIC micro-dilution; format: cell-based
Experimental: as §1, §2

Salmonella typhimurium [7] = test: MIC micro-dilution; format: cell-based
Experimental: as §1, §2

Shigella boydii [8] = test: MIC micro-dilution; format: cell-based; settings: LB media, 37° C., 16-18 hours
Experimental: as §1, §2

Staphylococcus aureus [9] = test: MIC micro-dilution; format: cell-based
Experimental: as §1, §2

Streptococcus pyogenes [10] = test: MIC micro-dilution; format: cell-based; settings: Mueller-Hinton media containing 5% (v/v) sheep blood, 37° C., 16-18 hours
Experimental: as §1, §2

Vibrio cholerae [11] = test: MIC micro-dilution; format: cell-based
Experimental: as §1, §2

Acinetobacter baumannii [12] = test: MBC and antibacterial mode; format: cell-based
Experimental: (§3) The antibacterial mode (i.e., bactericidal, bacteriostatic) was determined by calculating the quotient of the MBC and the MIC. Compounds with a quotient >4 are defined as bacteriostatic; if the quotient is lower than 4, compounds are defined as bactericidal. A micro-dilution protocol was used to perform MIC and MBC experiments in triplicate according to the CLSI guidelines. […] The total volume (100 μL) in the wells with no visual growth were plated on 1.5% (w/v) LB agar or 1.5% (w/v) Mueller-Hinton agar with 5% sheep blood and incubated for 22 hours at 37° C.

Edwardsiella tarda [13] = test: MBC and antibacterial mode; format: cell-based
Experimental: as §3

Enterobacter aerogenes [14] = test: MBC and antibacterial mode; format: cell-based
Experimental: as §3

Klebsiella pneumoniae [15] = test: MBC and antibacterial mode; format: cell-based
Experimental: as §3

Morganella morganii [16] = test: MBC and antibacterial mode; format: cell-based
Experimental: as §3

Pseudomonas aeruginosa [17] = test: MBC and antibacterial mode; format: cell-based
Experimental: as §3

Salmonella typhimurium [18] = test: MBC and antibacterial mode; format: cell-based
Experimental: as §3

Shigella boydii [19] = test: MBC and antibacterial mode; format: cell-based
Experimental: as §3

Staphylococcus aureus [20] = test: MBC and antibacterial mode; format: cell-based
Experimental: as §3

Streptococcus pyogenes [21] = test: MBC and antibacterial mode; format: cell-based
Experimental: as §3

Vibrio cholerae [22] = test: MBC and antibacterial mode; format: cell-based
Experimental: as §3

[23] = tested on: broad panel of human pathogens; test: MIC against the panel of pathogens; format: cell-based
Experimental: as §1, §2

[24] = tested on: E. coli anucleate cell strain (SH3210); test: High throughput anucleate cell assay; format: cell-based, Escherichia coli; settings: screen of small molecule libraries
Experimental: Briefly, E. coli anucleate cell strain (SH3210; ΔtrpR5 his λ pXX747) is used in the assay. […] The anucleated cells thus appear fluorescent in the presence of a fluorescent substrate (e.g., DDOAG) for LacZ. The protocol is summarized as follows: • 1. Prepare overnight culture of E. coli anucleate cell strain (SH3210) from LB-ampicillin plates. • 2. Dilute starter culture 1:1000 with liquid LB treated with 50 mg/ml of ampicillin and incubate for approximately 2.5 hr at 37° C. until approximately 0.1 OD600. • 3. Split diluted culture into wells (200 μL) • i. […] Negative control: 1 μL of DMSO • 4. Incubate diluted culture with compounds for approximately 2.5 hr at 42° C. at 300 rpm in a clear plate. • 5. Incubate cultures on ice for approximately 10 min until condensation on the cover disappears. • 6. Measure absorbance at a wavelength of 595 nm. • 7. In a black 96-well plate, add 80 μL of Z-buffer (600 mM Na2HPO4, 40 mM NaH2PO4, 10 mM KCl, 0.1 MgSO4) to each well pre-loaded with the following reagents: • a. Cell lysis solution called Popculture™ (1:5 Popculture™ to buffer). Popculture™ is a buffered mixture of concentrated detergents. • b. […] Shake for 30 s and measure fluorescence at a wavelength of 659 nm. • 13. Normalize the fluorescence measurements by dividing by OD595.

Work on `CCCCCCCCCOc1ccc2[nH]cc(CCN)c2c1` [Compound 1, 5-nonyloxytryptamine] yielded an MIC (Acinetobacter baumannii [1]) of 6 µg/mL (≈ 19.8 µM), an MIC (Acinetobacter baumannii [1]; LB media, 37° C., 16-18 hours) of 6.0 µg/mL (≈ 19.8 µM) and an MIC (Bacillus subtilis 168) of 0.76 µg/mL (≈ 2.51 µM). For the same compound, the MIC (Edwardsiella tarda [2]) was 6 µg/mL (≈ 19.8 µM), the MIC (Edwardsiella tarda [2]; LB media, 37° C., 16-18 hours) was 6.0 µg/mL (≈ 19.8 µM) and the MIC (Enterobacter aerogenes [3]; Enterobacter aerogenes, LB media, 37° C., 16-18 hours) was 6.0 µg/mL (≈ 19.8 µM). The MIC (Enterobacter aerogenes [3]; Klebsiella aerogenes) was 6 µg/mL (≈ 19.8 µM), the MIC (Klebsiella pneumoniae [4]) was 6 µg/mL (≈ 19.8 µM) and the MIC (Klebsiella pneumoniae [4]; LB media, 37° C., 16-18 hours) was 6.0 µg/mL (≈ 19.8 µM). For the same compound, the MIC (Morganella morganii [5]) was 12 µg/mL (≈ 39.7 µM), the MIC (Pseudomonas aeruginosa [6]) was 80 µM and 24 µg/mL and the MIC (Salmonella typhimurium [7]; Salmonella enterica, TYPHIMURIUM) was 6 µg/mL (≈ 19.8 µM). It also gave an MIC (Salmonella typhimurium [7]; Salmonella typhimurium, LB media, 37° C., 16-18 hours) of 6.0 µg/mL (≈ 19.8 µM), an MIC (Shigella boydii [8]) of 6.0 µg/mL (≈ 19.8 µM) and an MIC (Shigella boydii [8]; read-out: MIC) of 6 µg/mL (≈ 19.8 µM). It also gave an MIC (Staphylococcus aureus [9]) of 3 µg/mL (≈ 9.92 µM), an MIC (Staphylococcus aureus [9]; LB media, 37° C., 16-18 hours) of 3.0 µg/mL (≈ 9.92 µM) and an MIC (Streptococcus pyogenes [10]) of 24 µg/mL (≈ 79.3 µM). The MIC (Vibrio cholerae [11]) was 6 µg/mL (≈ 19.8 µM), the MIC (Vibrio cholerae [11]; LB media, 37° C., 16-18 hours) was 6.0 µg/mL (≈ 19.8 µM) and the “Antibacterial Mode” value (Acinetobacter baumannii [12]) was “Bactericidal (if the quotient is lower than 4, compounds are defined as bactericidal)”. The MBC (Acinetobacter baumannii [12]) was 6 µg/mL (≈ 19.8 µM), the MBC/MIC (Acinetobacter baumannii [12]) was 1 and the “Antibacterial Mode” value (Edwardsiella tarda [13]) was “Bactericidal (if the quotient is lower than 4, compounds are defined as bactericidal)”. For the same compound, the MBC (Edwardsiella tarda [13]) was 12 µg/mL (≈ 39.7 µM), the MBC/MIC (Edwardsiella tarda [13]) was 2 and the “Antibacterial Mode” value (Enterobacter aerogenes [14]) was “Bacteriostatic (Compounds with a quotient >4 are defined as bacteriostatic)”. For the same compound, the MBC/MIC (Enterobacter aerogenes [14]) was greater than 4, the MBC (Enterobacter aerogenes [14]; Klebsiella aerogenes) was greater than 96 µg/mL and the “Antibacterial Mode” value (Klebsiella pneumoniae [15]) was “Bactericidal (if the quotient is lower than 4, compounds are defined as bactericidal)”. The MBC (Klebsiella pneumoniae [15]) was 6 µg/mL (≈ 19.8 µM), the MBC/MIC (Klebsiella pneumoniae [15]) was 1 and the “Antibacterial Mode” value (Morganella morganii [16]) was “Bactericidal (if the quotient is lower than 4, compounds are defined as bactericidal)”. The MBC (Morganella morganii [16]) was 24 µg/mL (≈ 79.3 µM), the MBC/MIC (Morganella morganii [16]) was 2 and the “Antibacterial Mode” value (Pseudomonas aeruginosa [17]) was “Bacteriostatic (Compounds with a quotient >4 are defined as bacteriostatic)”. The MBC (Pseudomonas aeruginosa [17]) was 96 µg/mL (≈ 317 µM), the MBC/MIC (Pseudomonas aeruginosa [17]) was 4 and the “Antibacterial Mode” value (Salmonella typhimurium [18]) was “Bacteriostatic (Compounds with a quotient >4 are defined as bacteriostatic)”. For the same compound, the MBC/MIC (Salmonella typhimurium [18]) was 4, the MBC (Salmonella typhimurium [18]; Salmonella enterica) was 24 µg/mL (≈ 79.3 µM) and the “Antibacterial Mode” value (Shigella boydii [19]) was “Bactericidal (if the quotient is lower than 4, compounds are defined as bactericidal)”. For the same compound, the MBC (Shigella boydii [19]) was 6 µg/mL (≈ 19.8 µM), the MBC/MIC (Shigella boydii [19]) was 1 and the “Antibacterial Mode” value (Staphylococcus aureus [20]) was “Bactericidal (if the quotient is lower than 4, compounds are defined as bactericidal)”. The MBC (Staphylococcus aureus [20]) was 6 µg/mL (≈ 19.8 µM), the MBC/MIC (Staphylococcus aureus [20]) was 2 and the “Antibacterial Mode” value (Streptococcus pyogenes [21]) was “Bactericidal (if the quotient is lower than 4, compounds are defined as bactericidal)”. For the same compound, the MBC (Streptococcus pyogenes [21]) was 24 µg/mL (≈ 79.3 µM), the MBC/MIC (Streptococcus pyogenes [21]) was 1 and the “Antibacterial Mode” value (Vibrio cholerae [22]) was “Bacteriostatic (Compounds with a quotient >4 are defined as bacteriostatic)”. The MBC (Vibrio cholerae [22]) was 24 µg/mL (≈ 79.3 µM), the MBC/MIC (Vibrio cholerae [22]) was 4 and the MIC ([23]; Pseudomonas aeruginosa) was 5 to 20 µM. For the same compound, the MIC ([23]; against the pathogens tested, except Pseudomonas aeruginosa, read-out: MIC) was 3 to 12 µg/mL and the “hit in anucleate cell screen” value [24] was “potent hit”.
